Data taken from ChEMBL document CHEMBL3769303, “Discovery of membrane active benzimidazole quinolones-based topoisomerase inhibitors as potential DNA-binding antimicrobial agents” (Eur J Med Chem, 2016).
≈ marks a conversion by molar mass, not a printed value.

Tests used:
Type in all cases: functional
Shigella dysenteriae = assay: Antibacterial activity against Shigella dysenteriae by micro broth dilution method
Staphylococcus aureus [1] = assay: Antibacterial activity against methicillin-resistant Staphylococcus aureus N315 by micro broth dilution method
Staphylococcus aureus [2] = assay: Antibacterial activity against Staphylococcus aureus ATCC 25923 by micro broth dilution method
Micrococcus luteus = assay: Antibacterial activity against Micrococcus luteus ATCC 4698 by micro broth dilution method; settings: NCTC 2665
Bacillus spizizenii = assay: Antibacterial activity against Bacillus subtilis ATCC 6633 by micro broth dilution method
Escherichia coli [3] = assay: Antibacterial activity against Escherichia coli DH52 by micro broth dilution method
Escherichia coli [4] = assay: Antibacterial activity against Escherichia coli JM109 by micro broth dilution method
Pseudomonas aeruginosa = assay: Antibacterial activity against Pseudomonas aeruginosa ATCC 27853 by micro broth dilution method
[5] = Antibacterial activity against Bacillus proteus ATCC 13315 by micro broth dilution method
Salmonella enterica = assay: Antibacterial activity against Salmonella enterica ATCC 14028 by micro broth dilution method
[6] = Antifungal activity against Candida mycoderma ATCC 9888 after 24 hrs by micro broth dilution method; settings: Candida vini
Cyberlindnera jadinii = assay: Antifungal activity against Candida utilis ATCC 9950 after 24 hrs by micro broth dilution method; settings: Williopsis jadinii, ATCC 9950, 24 h
Aspergillus flavus = assay: Antifungal activity against Aspergillus flavus ATCC 204304 after 24 hrs by micro broth dilution method; settings: ATCC 204304, 24 h
Saccharomyces cerevisiae = assay: Antifungal activity against Saccharomyces cerevisiae ATCC 9763 after 24 hrs by micro broth dilution method; settings: ATCC 9763, 24 h
Candida albicans = assay: Antifungal activity against Candida albicans ATCC 10231 after 24 hrs by micro broth dilution method; settings: ATCC 10231, 24 h

SMILES	MIC (Shigella dysenteriae) [µg/mL]	MIC (Staphylococcus aureus [1]) [µg/mL]	MIC (Staphylococcus aureus [2]) [µg/mL]	MIC (Micrococcus luteus) [µg/mL]	MIC (Bacillus spizizenii) [µg/mL]	MIC (Escherichia coli [3]) [µg/mL]	MIC (Escherichia coli [4]) [µg/mL]	MIC (Pseudomonas aeruginosa) [µg/mL]	MIC [5] [µg/mL]	MIC (Salmonella enterica) [µg/mL]	MIC80 [6] [µg/mL]	MIC80 (Cyberlindnera jadinii) [µg/mL]	MIC80 (Aspergillus flavus) [µg/mL]	MIC80 (Saccharomyces cerevisiae) [µg/mL]	MIC80 (Candida albicans) [µg/mL]
CCn1cc(C(=O)O)c(=O)c2cc(F)c(N3CCN(Cc4nc5ccccc5n4Cc4ccccc4Cl)CC3)cc21	16 (≈ 27.9 µM)	0.125 (≈ 0.218 µM)	8 (≈ 13.9 µM)	0.5 (≈ 0.871 µM)	16 (≈ 27.9 µM)	2 (≈ 3.48 µM)	16 (≈ 27.9 µM)	1 (≈ 1.74 µM)	4 (≈ 6.97 µM)	0.5 (≈ 0.871 µM)	0.5 (≈ 0.871 µM)	2 (≈ 3.48 µM)	0.5 (≈ 0.871 µM)	1 (≈ 1.74 µM)	4 (≈ 6.97 µM)
CCCCCn1c(CN2CCN(c3cc4c(cc3F)c(=O)c(C(=O)O)cn4CC)CC2)nc2ccccc21	128 (≈ 246 µM)	64 (≈ 123 µM)	512 (≈ 985 µM)	16 (≈ 30.8 µM)	32 (≈ 61.6 µM)	8 (≈ 15.4 µM)	128 (≈ 246 µM)	64 (≈ 123 µM)	8 (≈ 15.4 µM)	256 (≈ 493 µM)	8 (≈ 15.4 µM)	32 (≈ 61.6 µM)	64 (≈ 123 µM)	64 (≈ 123 µM)	4 (≈ 7.7 µM)
CCn1c(CN2CCN(c3cc4c(cc3F)c(=O)c(C(=O)O)cn4C3CC3)CC2)nc2ccccc21	8 (≈ 16.3 µM)	128 (≈ 261 µM)	256 (≈ 523 µM)	2 (≈ 4.09 µM)	0.5 (≈ 1.02 µM)	2 (≈ 4.09 µM)	128 (≈ 261 µM)	2 (≈ 4.09 µM)	0.5 (≈ 1.02 µM)	0.5 (≈ 1.02 µM)	2 (≈ 4.09 µM)	2 (≈ 4.09 µM)	4 (≈ 8.17 µM)	128 (≈ 261 µM)	2 (≈ 4.09 µM)
CCn1cc(C(=O)O)c(=O)c2cc(F)c(N3CCN(CCc4nc5ccccc5[nH]4)CC3)cc21	128 (≈ 276 µM)	16 (≈ 34.5 µM)	64 (≈ 138 µM)	64 (≈ 138 µM)	2 (≈ 4.31 µM)	32 (≈ 69 µM)	32 (≈ 69 µM)	32 (≈ 69 µM)	16 (≈ 34.5 µM)	32 (≈ 69 µM)	64 (≈ 138 µM)	32 (≈ 69 µM)	32 (≈ 69 µM)	64 (≈ 138 µM)	64 (≈ 138 µM)
O=C(O)c1cn(C2CC2)c2cc(N3CCN(Cc4nc5ccccc5n4Cc4cccc(Cl)c4)CC3)c(F)cc2c1=O	4 (≈ 6.83 µM)	0.5 (≈ 0.853 µM)	8 (≈ 13.7 µM)	0.125 (≈ 0.213 µM)	4 (≈ 6.83 µM)	0.5 (≈ 0.853 µM)	4 (≈ 6.83 µM)	0.125 (≈ 0.213 µM)	0.5 (≈ 0.853 µM)	0.25 (≈ 0.427 µM)	0.5 (≈ 0.853 µM)	0.25 (≈ 0.427 µM)	0.5 (≈ 0.853 µM)	0.5 (≈ 0.853 µM)	0.125 (≈ 0.213 µM)
O=C(O)c1cn(C2CC2)c2cc(N3CCN(c4nc5ccccc5[nH]4)CC3)c(F)cc2c1=O	0.5 (≈ 1.12 µM)	0.5 (≈ 1.12 µM)	1 (≈ 2.23 µM)	1 (≈ 2.23 µM)	2 (≈ 4.47 µM)	1 (≈ 2.23 µM)	2 (≈ 4.47 µM)	0.5 (≈ 1.12 µM)	2 (≈ 4.47 µM)	1 (≈ 2.23 µM)	16 (≈ 35.8 µM)	4 (≈ 8.94 µM)	1 (≈ 2.23 µM)	1 (≈ 2.23 µM)	2 (≈ 4.47 µM)
CCn1cc(C(=O)O)c(=O)c2cc(F)c(N3CCN(c4nc5ccccc5[nH]4)CC3)cc21	4 (≈ 9.19 µM)	4 (≈ 9.19 µM)	2 (≈ 4.59 µM)	4 (≈ 9.19 µM)	2 (≈ 4.59 µM)	2 (≈ 4.59 µM)	8 (≈ 18.4 µM)	2 (≈ 4.59 µM)	1 (≈ 2.3 µM)	2 (≈ 4.59 µM)	16 (≈ 36.7 µM)	8 (≈ 18.4 µM)	16 (≈ 36.7 µM)	32 (≈ 73.5 µM)	8 (≈ 18.4 µM)
CCn1cc(C(=O)O)c(=O)c2cc(F)c(N3CCN(Cc4nc5ccccc5n4Cc4cccc(Cl)c4)CC3)cc21	64 (≈ 111 µM)	2 (≈ 3.48 µM)	64 (≈ 111 µM)	2 (≈ 3.48 µM)	16 (≈ 27.9 µM)	8 (≈ 13.9 µM)	64 (≈ 111 µM)	2 (≈ 3.48 µM)	32 (≈ 55.7 µM)	4 (≈ 6.97 µM)	2 (≈ 3.48 µM)	4 (≈ 6.97 µM)	1 (≈ 1.74 µM)	8 (≈ 13.9 µM)	8 (≈ 13.9 µM)
O=C(O)c1cn(C2CC2)c2cc(N3CCN(CNc4nc5ccccc5[nH]4)CC3)c(F)cc2c1=O	0.25 (≈ 0.525 µM)	0.25 (≈ 0.525 µM)	1 (≈ 2.1 µM)	1 (≈ 2.1 µM)	1 (≈ 2.1 µM)	1 (≈ 2.1 µM)	4 (≈ 8.39 µM)	0.5 (≈ 1.05 µM)	1 (≈ 2.1 µM)	1 (≈ 2.1 µM)	0.5 (≈ 1.05 µM)	8 (≈ 16.8 µM)	16 (≈ 33.6 µM)	4 (≈ 8.39 µM)	1 (≈ 2.1 µM)
CCCCCCCCCCCCCCCCCCn1c(CN2CCN(c3cc4c(cc3F)c(=O)c(C(=O)O)cn4CC)CC2)nc2ccccc21	256 (≈ 365 µM)	128 (≈ 182 µM)	256 (≈ 365 µM)	128 (≈ 182 µM)	128 (≈ 182 µM)	256 (≈ 365 µM)	256 (≈ 365 µM)	256 (≈ 365 µM)	256 (≈ 365 µM)	256 (≈ 365 µM)	64 (≈ 91.2 µM)	64 (≈ 91.2 µM)	64 (≈ 91.2 µM)	128 (≈ 182 µM)	128 (≈ 182 µM)
